Consider one compound from ChEMBL document CHEMBL5523716, “Discovery of novel EGFR-PROTACs capable of degradation of multiple EGFR-mutated proteins” (Eur J Med Chem, 2024).

Calls of active or inactive are those of the source. No cut-off for these calls is given here.

Data set [1] is described as follows: Antiproliferative activity against human H1975-TM cells harboring EGFR L858R/T790M/C797S mutant assessed as inhibition of cell growth incubated for 48 to 72 hrs by CCK-8 assay. It counts as functional, cell-based. (In general: Formazan colour is commonly taken as a measure of viable cells.)
Data set [2] can be described thus: Metabolic stability in human liver microsomes assessed as elimination rate constant at 1 uM incubated upto 60 mins in presence of NADPH by LC-MS/MS analysis. In kind it is ADME, Microsome.
Data set [3] can be described thus: Metabolic stability in monkey liver microsomes assessed as half-life at 1 uM incubated upto 60 mins in presence of NADPH by LC-MS/MS analysis. It counts as ADME, Macaca mulatta, Microsome. Conditions: rhesus monkey.
Data set [4] is described as follows: Metabolic stability in mouse liver microsomes assessed as half-life at 1 uM incubated upto 60 mins in presence of NADPH by LC-MS/MS analysis. It counts as ADME, Microsome. On the technique in general: Liver microsomes are a subcellular fraction often used to study metabolism.
The nature of data set [5]: Metabolic stability in rat liver microsomes assessed as intrinsic clearance at 1 uM incubated upto 60 mins in presence of NADPH by LC-MS/MS analysis. In kind it is ADME, Microsome. Conditions: read-out: CLH.
Data set [6] can be described thus: Metabolic stability in mouse liver microsomes assessed as intrinsic clearance at 1 uM incubated upto 60 mins in presence of NADPH by LC-MS/MS analysis. In kind it is ADME, Microsome. Conditions: read-out: CLH.
Data set [7] is described as follows: Half life in SPF ICR mouse at 2 mg/kg,iv measured upto 24 hrs by LC-MS/MS analysis. In kind it is ADME, organism-based. Conditions: in vivo.
The nature of data set [8]: Tmax in SPF ICR mouse at 5 mg/kg,ip measured upto 24 hrs by LC-MS/MS analysis. In kind it is ADME, organism-based. Conditions: in vivo.
Data set [9] can be described thus: MRT (0 to t) in SPF ICR mouse at 5 mg/kg,ip measured upto 24 hrs by LC-MS/MS analysis. In kind it is ADME, organism-based. Conditions: in vivo.
Data set [10] is described as follows: MRT (0 to infinity) in SPF ICR mouse at 2 mg/kg,iv measured upto 24 hrs by LC-MS/MS analysis. In kind it is ADME, organism-based. To be noted: in vivo.
The target in data set [11] is von Hippel-Lindau disease tumor suppressor/Epidermal growth factor receptor (Homo sapiens, UniProt P00533+P40337, T790M/C797S/L858R). As to the kind of experiment: PROTAC activity at VHL/EGFR L858R/T790M/C797S mutant in human H1975-TM cells assessed as induction of EGFR degradation incubated for 48 hrs by Western blot analysis. In kind it is cell-based. On the technique in general: Immunoblotting shows a protein as a band on a membrane.

Data set [12] has as its system von Hippel-Lindau disease tumor suppressor/Epidermal growth factor receptor (Homo sapiens), P00533+P40337 [UNDEFINED MUTATION]. As to the kind of experiment: PROTAC activity at VHL/EGFR Del19 mutant in human HCC827 cells assessed as downregulation of AKT phosphorylation incubated for 72 hrs by Western blot analysis. It counts as cell-based.
Data set [13] deals with von Hippel-Lindau disease tumor suppressor/Epidermal growth factor receptor (Homo sapiens), P00533+P40337 [L858R,T790M,C797S]. As to the kind of experiment: PROTAC activity at VHL/EGFR L858R/T790M/C797S mutant in human H1975-TM cells assessed as downregulation of EGFR phosphorylation incubated for 48 hrs by Western blot analysis. It counts as cell-based.
Data set [14] shares this test system. Kind of data set: PROTAC activity at VHL/EGFR L858R/T790M/C797S mutant in human H1975-TM cells assessed as downregulation of AKT phosphorylation incubated for 48 hrs by Western blot analysis. In kind it is cell-based.
Data set [15] has the same test system. As to the kind of experiment: PROTAC activity at VHL/EGFR L858R/T790M/C797S mutant in human H1975-TM cells assessed as induction of EGFR degradation at 100 nM preincubated with MG-132 for 6 hrs followed by compound treatment for 48 hrs by Western blot analysis. It counts as cell-based.
Data set [16] concerns NCI-H1975. Kind of data set: Antitumor activity against human NCI-H1975 cells xenografted in BALB/c mouse assessed as increase in EGFR degradation in tumor at 20 mg/kg,ip once daily for 22 days by Western blot analysis relative to control. It counts as functional. Conditions: time 22 day.
Data set [17] in a line: Antitumor activity against human H1975-TM cells xenografted in BALB/c mouse assessed as tumor growth inhibition at 5 mg/kg,ip once daily for 14 days relative to control. It counts as functional. Conditions: 336 h, time 14 day, read-out: TGI.

As a reminder, the IC50 is the midpoint of a concentration-inhibition curve. What is called half-life is how long it takes for the measured level to halve. Usually Tmax stands for the time from dosing to the highest level. What is called MRT last is the average time that molecules of a dose stay in the body. The term MRT inf denotes the average time that molecules of a dose stay in the body. The DC50 is the concentration giving 50% degradation.

Chain of von Hippel-Lindau disease tumor suppressor/Epidermal growth factor receptor (P00533 25-1210 T790M/C797S/L858R limits assumed, stated change not applied): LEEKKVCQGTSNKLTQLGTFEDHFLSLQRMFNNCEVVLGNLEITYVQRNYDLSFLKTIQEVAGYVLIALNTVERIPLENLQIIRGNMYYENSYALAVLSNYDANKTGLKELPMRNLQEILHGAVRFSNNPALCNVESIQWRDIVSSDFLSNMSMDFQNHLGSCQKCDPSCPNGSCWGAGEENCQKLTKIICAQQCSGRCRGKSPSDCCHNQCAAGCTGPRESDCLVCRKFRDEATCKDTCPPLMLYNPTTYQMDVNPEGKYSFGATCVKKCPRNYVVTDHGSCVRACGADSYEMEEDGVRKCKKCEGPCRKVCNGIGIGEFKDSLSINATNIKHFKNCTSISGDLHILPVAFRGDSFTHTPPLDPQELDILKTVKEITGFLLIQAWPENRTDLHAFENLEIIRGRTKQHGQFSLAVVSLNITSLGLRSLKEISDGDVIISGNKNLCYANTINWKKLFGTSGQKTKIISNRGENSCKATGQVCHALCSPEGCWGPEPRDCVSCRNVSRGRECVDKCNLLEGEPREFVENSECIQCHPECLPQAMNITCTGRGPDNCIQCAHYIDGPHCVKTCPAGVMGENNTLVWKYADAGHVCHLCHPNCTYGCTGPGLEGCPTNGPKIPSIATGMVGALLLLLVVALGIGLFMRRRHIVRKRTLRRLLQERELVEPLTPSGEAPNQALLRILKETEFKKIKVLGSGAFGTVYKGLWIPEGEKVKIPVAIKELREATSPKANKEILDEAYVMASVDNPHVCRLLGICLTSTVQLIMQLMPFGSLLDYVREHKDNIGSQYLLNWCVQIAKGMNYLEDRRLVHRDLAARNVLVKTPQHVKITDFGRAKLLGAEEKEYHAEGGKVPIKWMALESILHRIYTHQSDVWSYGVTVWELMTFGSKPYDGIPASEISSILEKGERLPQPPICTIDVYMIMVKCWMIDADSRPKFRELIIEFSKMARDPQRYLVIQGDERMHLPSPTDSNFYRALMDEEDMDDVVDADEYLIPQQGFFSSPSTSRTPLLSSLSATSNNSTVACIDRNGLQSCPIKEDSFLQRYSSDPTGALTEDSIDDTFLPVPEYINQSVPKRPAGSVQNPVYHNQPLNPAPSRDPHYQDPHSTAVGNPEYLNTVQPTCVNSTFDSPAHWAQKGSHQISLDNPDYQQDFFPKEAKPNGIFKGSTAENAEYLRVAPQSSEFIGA
Chain of von Hippel-Lindau disease tumor suppressor/Epidermal growth factor receptor (P40337 whole entry, stated change not applied): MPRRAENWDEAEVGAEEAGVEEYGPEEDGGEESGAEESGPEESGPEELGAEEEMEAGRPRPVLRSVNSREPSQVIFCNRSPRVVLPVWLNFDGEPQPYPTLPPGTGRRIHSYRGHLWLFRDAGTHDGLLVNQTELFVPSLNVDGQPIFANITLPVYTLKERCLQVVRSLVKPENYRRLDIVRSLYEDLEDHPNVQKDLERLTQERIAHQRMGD
Chain of von Hippel-Lindau disease tumor suppressor/Epidermal growth factor receptor (Homo sapiens), P00533+P40337 [UNDEFINED MUTATION] (P00533 whole entry, looked up, stated change not applied): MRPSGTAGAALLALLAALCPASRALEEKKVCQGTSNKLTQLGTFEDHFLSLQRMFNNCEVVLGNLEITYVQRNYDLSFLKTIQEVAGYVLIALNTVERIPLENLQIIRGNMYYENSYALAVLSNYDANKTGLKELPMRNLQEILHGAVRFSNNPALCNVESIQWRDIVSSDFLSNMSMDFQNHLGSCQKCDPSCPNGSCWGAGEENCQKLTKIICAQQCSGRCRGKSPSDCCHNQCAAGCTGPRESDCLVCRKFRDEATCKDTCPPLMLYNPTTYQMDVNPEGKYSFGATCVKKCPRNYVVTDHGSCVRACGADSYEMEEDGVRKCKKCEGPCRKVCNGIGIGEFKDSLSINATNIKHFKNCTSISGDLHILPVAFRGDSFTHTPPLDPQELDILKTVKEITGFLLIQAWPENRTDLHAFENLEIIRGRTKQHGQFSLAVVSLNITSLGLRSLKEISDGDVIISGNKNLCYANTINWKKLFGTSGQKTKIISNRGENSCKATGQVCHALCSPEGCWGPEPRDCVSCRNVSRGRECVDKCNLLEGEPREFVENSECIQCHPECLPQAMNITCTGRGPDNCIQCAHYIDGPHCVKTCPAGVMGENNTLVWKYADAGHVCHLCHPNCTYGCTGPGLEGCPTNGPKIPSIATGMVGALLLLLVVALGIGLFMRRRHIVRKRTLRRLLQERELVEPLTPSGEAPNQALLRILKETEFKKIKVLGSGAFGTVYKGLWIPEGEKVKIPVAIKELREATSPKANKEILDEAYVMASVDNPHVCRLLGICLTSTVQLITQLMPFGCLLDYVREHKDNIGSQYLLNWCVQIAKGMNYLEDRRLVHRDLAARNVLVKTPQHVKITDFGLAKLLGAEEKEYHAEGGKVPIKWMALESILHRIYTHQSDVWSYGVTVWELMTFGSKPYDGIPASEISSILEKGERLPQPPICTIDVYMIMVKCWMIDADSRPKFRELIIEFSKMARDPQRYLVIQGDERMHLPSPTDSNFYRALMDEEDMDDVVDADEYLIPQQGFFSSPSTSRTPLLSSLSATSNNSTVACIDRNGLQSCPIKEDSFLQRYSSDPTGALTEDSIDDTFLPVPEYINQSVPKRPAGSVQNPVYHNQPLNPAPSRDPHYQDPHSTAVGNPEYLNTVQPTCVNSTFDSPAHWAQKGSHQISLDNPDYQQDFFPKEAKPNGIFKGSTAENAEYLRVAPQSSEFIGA
Chain of von Hippel-Lindau disease tumor suppressor/Epidermal growth factor receptor (Homo sapiens), P00533+P40337 [UNDEFINED MUTATION] (P40337 whole entry, looked up, stated change not applied): as the sequence (P40337 whole entry, stated change not applied) above

Consider `CCN(CC)C/C=C/C(=O)Nc1cc2c(Nc3ccc(F)c(Cl)c3)ncnc2cc1OCc1cn(CCCCCCCC(=O)N[C@H](C(=O)N2C[C@H](O)C[C@H]2C(=O)N[C@H](C)c2ccc(-c3scnc3C)cc2)C(C)(C)C)nn1`, for which the IC50 in data set [1] amounted to 3.24 µM. In [2], the k el at 1 h, 1 µM was 0.0007 s⁻¹. Moreover, the half-life at 1 µM in data set [3] turned out to be 0.632 h; in data set [4], 1.95 h. Also, the figures for the microsomal CLint at 1 µM in data set [5] and in data set [6] were 7.4 µL/min/mg and 11.8 µL/min/mg, respectively. For the same compound, in data set [7], the half-life was 1.67 h. Further, the Tmax in data set [8] was 2 h. The MRT last at 24 h in data set [9] is 2.86 h. This compound also showed an MRT inf in [10] of 0.34 h. Besides, in data set [11], the DC50 was 0.63 µM. Also, the Activity entry in data set [12] is “Dose-Dependent Effect”; in [13], “Dose-Dependent Effect”; in data set [14], “Dose-Dependent Effect”; in data set [16], greater than 75%. Besides, in data set [15], the result was inactive. Also, in data set [17], the inhibition in vivo at 5 mg/kg was determined as 24%.
